# Patent US10918742B2, “Iodine-based particles” (Nanoprobes, Inc., priority 2016, dated 2021)
# Tests used:
# [1] = microCT comparison with commercially available agent (kidney, lung); type: in vivo, mouse
# Experimental: A mouse was injected with a standard iodine contrast agent at an effective dose of 2.5 g iodine/kg.
# A mouse was injected with a standard iodine contrast agent at an effective dose of 1.75 g iodine/kg.
# [2] = mice, acute dose; cited from earlier work
compound,measurement,setting,value
"CC(=O)N(CC(O)CO)c1c(I)c(C(=O)NCC(O)CO)c(I)c(C(=O)NCC(O)CO)c1I (stereo not drawn) [Iohexol, 5-(N-2,3-Dihydroxypropylacetamido)-2,4,6-triiodo-N,N′-bis(2,3-dihydroxypropyl)isophthalamide]",microCT of lung region,"[1]; 30 minutes after injection, 1.75 g iodine/kg",no clear visualization of any vasculature
same,microCT of kidney region,"[1]; two minutes after injection, Example 1 at 1.75 g iodine/kg, standard agent at 2.5 g iodine/kg",the iodine has rapidly entered the kidneys and is being quickly removed from the blood
same,intravenous LD50,[2],24.2 g iodine/kg
